{
  "source": "patent US20250314641A1",
  "about": "“OBLIQUE LINE SCANNER SYSTEMS AND METHODS FOR HIGH THROUGHPUT SINGLE MOLECULE TRACKING IN LIVING CELLS” (EIKON THERAPEUTICS, INC., priority 2022, published 2025)",
  "system": "Halo-PCNA labeled U2OS cells",
  "assay": "Cell cycle phase assignment by machine learning model in Halo-PCNA U2OS cells",
  "type": "cell-based",
  "conditions": "2 mM Thymidine (S-phase block) or 10 mM RO-3306 (G2-M block)",
  "protocol": "FIGS. 20A-20F illustrate that OLS can be applied to capture the inter and intracellular heterogeneity of single protein dynamics. FIG. 20A depicts the analysis of sources of variance in SMT for KEAP1 measured under either OLS or HILO illumination. The contribution of cell to cell variation is 17-32 fold greater than that of FOV level or well to well variances, respectively. FIG. 20B depicts representative images of Halo-PCNA labeled cells treated with 2 mM Thymidine or 10 mM RO-3306 (top). Cell cycle prediction from a machine learning (ML) model used to color cell by cycle phase (bottom). FIG. 20C depicts the quantification of the fraction of cells in each cell phase in response to cycle block treatments in FIG. 20B. The following number of cells were analyzed for each condition: 34,067 for DMSO, 3,831 for RO-3306 and 6,044 for thymidine. […]\nTime-lapse microscopy was conducted on Halo-PCNA labeled with 50 nM JFX650, to achieve near-saturating labeling, for 12 hours at 12 frames per hour (FIG. 21A). […] When cells in each cell phase were analyzed separately, it became apparent that the slow-moving population of PCNA was exclusively found in cell predicted to be in S-phase and that there was a marked decrease in the fast-moving population (FIG. 20E). […]\nCell cycle as provided above can be automatically determined using an image (e.g., an image of JF549-labeled PCNA). […]",
  "data": [
    {"compound": "O=C1NC(=NCc2cccs2)S/C1=C\\c1ccc2ncccc2c1", "note": "[RO-3306]", "values": [
      {"measurement": "fraction of cells assigned to cell cycle phases", "value": "expected enrichment in the fraction of cells assigned to the respective cell phases"}
    ]},
    {"compound": "Cc1cn([C@H]2C[C@H](O)[C@@H](CO)O2)c(=O)[nH]c1=O", "note": "[thymidine]", "values": [
      {"measurement": "fraction of cells assigned to cell cycle phases", "value": "expected enrichment in the fraction of cells assigned to the respective cell phases"}
    ]}
  ]
}
